Test results taken from publication PMC5537068, “Endoglucanase activity at a second site in Pyrococcus furiosus triosephosphate isomerase—Promiscuity or compensation for a metabolic handicap?” (FEBS Open Bio, 2017).

Key:
PfuTIM [1] = target: T1, PfuTIM (Pyrococcus furiosus, UniProt P62002); experiment: resorufin release, absorbance at […] nm; assay type: biochemical; settings: pH 6.0, 35 °C; phosphate-purified enzyme 2 μM; substrate 2.5-250 μM; promiscuous endoglucanase activity, second site
T1 construct: gene tpiA; full-length, 6xHis tag from pQE30 (BamHI/HindIII), tag kept; E. coli M15[pREP4]; IMAC and gel filtration; monomer ~25 kDa; octamer in Tris, hexamer in phosphate
T1 sequence (P62002 whole entry): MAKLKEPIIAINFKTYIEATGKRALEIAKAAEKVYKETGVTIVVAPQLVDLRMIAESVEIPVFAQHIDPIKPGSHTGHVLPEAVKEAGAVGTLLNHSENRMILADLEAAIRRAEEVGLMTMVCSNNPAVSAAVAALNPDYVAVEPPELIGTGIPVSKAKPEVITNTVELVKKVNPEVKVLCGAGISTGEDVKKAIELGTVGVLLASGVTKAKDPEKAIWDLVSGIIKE

PfuTIM [2] = target: T2, PfuTIM (Pyrococcus furiosus, UniProt P62002, E144G); experiment: resorufin release, absorbance at […] nm; assay type: biochemical; settings: 37 °C, overnight incubation
T2 construct: gene tpiA; full-length, 6xHis tag from pQE30 (BamHI/HindIII), tag kept; E. coli M15[pREP4]; IMAC and gel filtration; monomer ~25 kDa; octamer in Tris, hexamer in phosphate
T2 sequence (P62002 whole entry E144G): as the sequence (P62002 whole entry) above, with E144G counted along it

PfuTIM [3] = target: T1, PfuTIM; experiment: intrinsic tryptophan fluorescence quenching, hyperbolic fit; assay type: binding
PfuTIM [4] = target: T1, PfuTIM; experiment: inhibition of cellobioside-resorufin hydrolysis, absorbance at […] nm; assay type: biochemical; settings: enzyme 2 μM; cellobioside-resorufin 100 μM; norharman 25 μM; endoglucanase activity; headed as competitive

SMILES	Km (PfuTIM [1])	% of wild-type activity (PfuTIM [2])	Kd (PfuTIM [3]) [µM]	complete inhibition at 25 μM (PfuTIM [4])
O=c1ccc2nc3ccc(O[C@@H]4O[C@H](CO)[C@@H](O[C@@H]5O[C@H](CO)[C@@H](O)[C@H](O)[C@H]5O)[C@H](O)[C@H]4O)cc3oc-2c1 [cellobioside–resorufin]	~ 53.62 ± 4.05 μM	percentages of activity with respect to the wild‐type protein are plotted, for assays with cellobioside–resorufin	–	–
c1ccc2c(c1)[nH]c1cnccc12 [norharman]	–	–	~83	With norharman, complete inhibition of endoglucanase/cellulase activity is seen
